Assays:
RAW264.7 cells = assay: Cell viability (MTT) in the presence of LPS; format: cell-based; details: RAW 264.7 cells, 100 ng/mL LPS, 24 h
Description: (§1) A murine macrophage cell line RAW264.7 (BCRC No. 60001) was purchased from the Bioresources Collection and Research Center (BCRC, Hsinchu, Taiwan) of the Food Industry Research and Development Institute (Hsinchu, Taiwan). Cells were cultured in plastic dishes containing Dulbecco’s Modified Eagle Medium (DMEM, Sigma, St. Louis, MO, USA) supplemented with 10% fetal bovine serum (FBS, Sigma) in a CO2 incubator (5% CO2 in air) at 37 °C and subcultured every 3 days at a dilution of 1:5 using 0.05% trypsin-0.02% EDTA in Ca^2+-, Mg^2+-free phosphate-buffered saline (DPBS).
Cells (2 × 10^5) were cultured in 96-well plate containing DMEM supplemented with 10% FBS for 1 day to become nearly confluent. Then cells were cultured with compounds 1–5 in the presence of 100 ng/mL LPS (lipopolysaccharide) for 24 h. After that, the cells were washed twice with DPBS and incubated with 100 μL of 0.5 mg/mL MTT for 2 h at 37 °C testing for cell viability. The medium was then discarded and 100 μL dimethyl sulfoxide (DMSO) was added. After 30-min incubation, absorbance at 570 nm was read using a microplate reader (Molecular Devices, Sunnyvale, CA, USA).

[1] = system: LPS-stimulated production of nitrite in RAW264.7 cell; assay: Inhibition of LPS-stimulated nitrite (NO) production, Griess reaction; format: cell-based, murine; details: for IC50: Mus musculus, RAW264.7, RAW 264.7 cells, LPS 100 ng/mL, 24 h, Griess reaction, read-out: IC50 (decrease nitrite of LPS-stimulated production)
Text: NO, produced from L-arginine by NO synthase, has various biological actions, e.g., as a defense and regulatory molecule for homeostatic equilibrium. However, in pathophysiologic conditions, such as inflammation, there is an increased production of NO by inducible NO synthase (iNOS). Macrophages have been expected to be an origin of inflammation, because they contain various chemical mediators that may be responsible for several inflammatory stages. The inhibitory activity toward NO production, induced by lipopolysaccharides (LPS), by murine macrophage-derived RAW264.7 cells was assayed.
as §1
NO production was indirectly assessed by measuring the nitrite levels in the cultured media and serum determined by a colorimetric method based on the Griess reaction. The cells were incubated with butanolides (0, 3.125, 6.25, 12.5, 25 and 50 μg/mL) in the presence of LPS (100 ng/mL) at 37 °C for 24 h. Then, cells were dispensed into 96-well plates, and 100 μL of each supernatant was mixed with the same volume of Griess reagent (1% sulfanilamide, 0.1% naphthylethylenediamine dihydrochloride and 5% phosphoric acid) and incubated at room temperature for 10 min, the absorbance was measured at 540 nm with a Micro-Reader (Molecular Devices). Serum samples were diluted four times with distilled water and deproteinized by adding 1/20 volume of zinc sulfate (300 g/L) to a final concentration of 15 g/L. After centrifugation at 10,000 × g for 5 min at room temperature, 100 μL supernatant was applied to a microtiter plate well, followed by 100 μL of Griess reagent. After 10 min of color development at room temperature, the absorbance was measured at 540 nm with a Micro-Reader. By using sodium nitrite to generate a standard curve, the concentration of nitrite was measured form absorbance at 540 nm.
IC50 values were estimated using a non-linear regression algorithm (Sigma Plot 8.0; SPSS Inc. Chicago, IL, USA). Statistical evaluation was carried out by one-way analysis of variance (ANOVA followed by Scheffe’s multiple range tests).

SMILES | LD50 (cell viability) (RAW264.7 cells) | IC50 [1] | anti-inflammatory activity (in words) ([1]; RAW264.7 cells, LPS-stimulated nitrite production)
C=CCCCCCCCCC/C=C1/C(=O)OC(C)[C@@H]1O (stereo partly drawn) [Compound 4, (3E,4α,5β)-3-(dodec-11-enylidene)-4-hydroxy-5-methylbutalactone] | 67.1 µM | 1.4 µM | –
CCCCCCCCCCC=CC1C(=O)OC(C)C1O (stereo not drawn) [Compound 1, 3β-((E)-dodec-1-enyl)-4β-hydroxy-5β-methyldihydrofuran-2-one] | 72.3 µM | 44.3 µM | –
CCCCCCCCCCCC/C=C/C1=CC(C)OC1=O (centres unmarked) [Compound 2, Akolactone A] | >211.9 µM | 180 µM | –
C=CCCCCCCCCC/C=C1\C(=O)OC(C)[C@@H]1O (stereo partly drawn) [Compound 3, (3Z,4α,5β)-3-(dodec-11-enylidene)-4-hydroxy-5-methylbutalactone] | 49.3 µM | 2.4 µM | –
C=C1OC(=O)/C(=C/CCCCCCCCCCC)[C@H]1O [Compound 5, dihydroisoobtusilactone] | >178.6 µM | 97.9 µM | no significant active

From publication PMC6268235, “A New Butanolide Compound from the Aerial Part of Lindera akoensis with Anti-inflammatory Activity” (Molecules, 2012)
